Test results as given in patent US20120283297A1, “OXADIAZOLE SUBSTITUTED INDAZOLE DERIVATIVES FOR USE AS SPHINGOSINE 1-PHOSPHATE 1 (S1P1) RECEPTOR AGONISTS” (GLAXO WELLCOME HOUSE, priority 2009, published 2012).
pEC50: −log10 of the molar value.

Target: T1, S1P1 receptor (Homo sapiens, UniProt P21453)
T1 construct: TEV protease site; Gal4-VP16 transcription factor; expressed in transfected cells; host or cells: Tango GPCR-bla U2OS parental cell line (EDG1-bla/U2OS)
Test: S1P1 Tango Assay
Format: cell-based
Settings: agonist activity, recombinant EDG1-bla/U2OS cells, beta-lactamase FRET readout
From the text: The potencies and efficacies of the compounds of this invention for the S1P1 receptor can be determined by S1P1 Tango assay performed on the human cloned receptor as described herein.
Recombinant EDG1-bla/U2OS cells (contain the human Endothelial Differentiation Gene 1 (EDG1) linked to a TEV protease site and a Gal4-VP16 transcription factor stably integrated into the Tango GPCR-bla U2OS parental cell line) were harvested from growth medium and passaged into assay medium (Invitrogen Freestyle Expression Medium). The cells were starved for 24 hours at 37° C., 5% CO2, harvested and resuspended in assay medium at a density of ˜200,000 cells/ml. All test compounds were dissolved in DMSO at a concentration of 10 mM and were prepared in 100% DMSO to provide 10 point dose response curves. Test compounds prepared by Bravo (Velocity11) were added to wells in columns 2-11 and 13-22; DMSO was added to wells in columns 12 and 23 as unstimulated controls and assay medium was added to wells in columns 1 and 24 as cell-free controls. An S1P1 agonist was added to wells in row 2, columns 2-11 as stimulated controls and test compounds were added to wells in row 2, columns 13-22 and rows 3-15, columns 2-11/13-22 (row 1 and 16 were empty and not used). Compounds in solution were added to the assay plate (Greiner 781090) using an Echo (Labcyte) dose-response program (50 nl/well). The unstimulated and cell-free controls were loaded with 50 nl/well pure DMSO to ensure that the DMSO concentration was constant across the plate for all assays.
50 μl of the cell suspension was added to each well in columns 2-23 of the plate (˜10,000 cells per well). 50 μl of assay medium was added to each well in the cell-free controls (columns 1 and 24). The cells were incubated overnight at 37° C./5% CO2. 10 μl of 6× substrate mixture (LiveBLAzer™-FRET BIG substrate (CCF4-AM) Cat # K1096 from Invitrogen, Inc.) was added to each well using Bravo and the plates incubated at room temperature for 2 h in the dark. The plate was finally read on EnVision for two emission channels (460 nm and 530 nm).
The blue/green emission ratio (460 nm/530 nm) was calculated for each well, by dividing the background-subtracted Blue emission values by the background-subtracted Green emission values. The dose response curve is based on sigmoidal dose-response model. All ratio data was normalized based upon the maximum emission ratio of positive control and minimum emission ratio of negative control (DMSO) on each plate. The intrinsic activity (IA) of each compound would be the normalized percentage of its maximum response after curve fitting.

T1 sequence (P21453 whole entry, the tested form may be a part): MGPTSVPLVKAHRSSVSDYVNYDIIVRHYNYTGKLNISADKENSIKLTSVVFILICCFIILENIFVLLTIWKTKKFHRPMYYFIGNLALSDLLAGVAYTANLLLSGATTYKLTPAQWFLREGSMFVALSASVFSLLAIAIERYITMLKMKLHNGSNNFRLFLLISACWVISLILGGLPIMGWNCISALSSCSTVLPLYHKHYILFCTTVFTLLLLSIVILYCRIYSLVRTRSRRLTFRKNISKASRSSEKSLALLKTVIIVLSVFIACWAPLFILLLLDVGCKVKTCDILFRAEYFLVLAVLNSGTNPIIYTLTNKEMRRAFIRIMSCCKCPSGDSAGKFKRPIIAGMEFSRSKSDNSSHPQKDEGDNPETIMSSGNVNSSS

| Compound | pEC50 |
| --- | --- |
| CC(C)Oc1ccc(-c2nc(-c3cccc4c3cnn4CCCCC(=O)O)no2)cc1Cl [Example 6, 5-[4-(5-{3-Chloro-4-[(1-methylethyl)oxy]phenyl}-1,2,4-oxadiazol-3-yl)-1H-indazol-1-yl]pentanoic acid] | 7.00 to 8.00 |
| CC(C)Oc1ccc(-c2nc(-c3ccc4[nH]ncc4c3)no2)cc1Cl [Example 1, 5-(5-{3-Chloro-4-[(1-methylethyl)oxy]phenyl}-1,2,4-oxadiazol-3-yl)-1H-indazole] | ≥ 9.00 |
| CC(C)Oc1ccc(-c2nc(-c3ccc4[nH]ncc4c3)no2)cc1C#N [Example 2, 5-[3-(1H-Indazol-5-yl)-1,2,4-oxadiazol-5-yl]-2-[(1-methylethyl)oxy]benzonitrile] | 8.00 to 9.00 |
| CC(C)Oc1ccc(-c2nc(-c3cccc4c3cnn4C3(CC(=O)O)COC3)no2)cc1Cl [Example 8, {3-[4-(5-{3-Chloro-4-[(1-methylethyl)oxy]phenyl}-1,2,4-oxadiazol-3-yl)-1H-indazol-1-yl]-3-oxetanyl}acetic acid] | 7.00 to 8.00 |
| CC(C)Oc1ccc(-c2nc(-c3cccc4c3cnn4CC(C)C(=O)O)no2)cc1Cl (centres unmarked) [Example 5, 3-[4-(5-{3-Chloro-4-[(1-methylethyl)oxy]phenyl}-1,2,4-oxadiazol-3-yl)-1H-indazol-1-yl]-2-methylpropanoic acid] | 7.00 to 8.00 |
| CC(C)Oc1ccc(-c2nc(-c3cccc4[nH]ncc34)no2)cc1C#N [Example 3, 5-[3-(1H-Indazol-4-yl)-1,2,4-oxadiazol-5-yl]-2-[(1-methylethyl)oxy]benzonitrile] | ≥ 9.00 |
| CC(C)Oc1ccc(-c2nc(-c3cccc4[nH]ncc34)no2)cc1Cl [Example 4, 4-(5-{3-Chloro-4-[(1-methylethyl)oxy]phenyl}-1,2,4-oxadiazol-3-yl)-1H-indazole] | 7.00 to 8.00 |

Further lines, results first:

| pEC50 | Compound |
| --- | --- |
| 7.00 to 8.00 | CC(C)Oc1ncc(-c2nc(-c3ccc4[nH]ncc4c3)no2)cc1Cl [Example 11, 5-(5-{5-Chloro-6-[(1-methylethyl)oxy]-3-pyridinyl}-1,2,4-oxadiazol-3-yl)-1H-indazole] |
| 7.00 to 8.00 | CC(C)Oc1ncc(-c2nc(-c3cc4cnn(CCCC(=O)O)c4cc3F)no2)cc1Cl [Example 17, 4-[5-(5-{5-Chloro-6-[(1-methylethyl)oxy]-3-pyridinyl}-1,2,4-oxadiazol-3-yl)-6-fluoro-1H-indazol-1-yl]butanoic acid] |
| 7.00 to 8.00 | CC(C)Oc1ncc(-c2nc(-c3ccc4c(cnn4CCC(=O)O)c3)no2)cc1Cl [Example 10, 3-[5-(5-{5-Chloro-6-[(1-methylethyl)oxy]-3-pyridinyl}-1,2,4-oxadiazol-3-yl)-1H-indazol-1-yl]propanoic acid] |
| 8.00 to 9.00 | CC(C)Oc1ncc(-c2nc(-c3cc4cn[nH]c4cc3Cl)no2)cc1Cl [Example 19, 6-Chloro-5-(5-{5-chloro-6-[(1-methylethyl)oxy]-3-pyridinyl}-1,2,4-oxadiazol-3-yl)-1H-indazole] |
| 8.00 to 9.00 | Cc1c(-c2noc(-c3cnc(OC(C)C)c(Cl)c3)n2)ccc2c1cnn2CCCC(=O)O [Example 13, 4-[5-(5-{5-Chloro-6-[(1-methylethyl)oxy]-3-pyridinyl}-1,2,4-oxadiazol-3-yl)-4-methyl-1H-indazol-1-yl]butanoic acid] |
| 8.00 to 9.00 | CC(C)Oc1ccc(-c2nc(-c3cccc4c3cnn4CC(O)C(=O)O)no2)cc1Cl (single isomer, unassigned) [Example 9, Lithium 3-[4-(5-{3-chloro-4-[(1-methylethyl)oxy]phenyl}-1,2,4-oxadiazol-3-yl)-1H-indazol-1-yl]-2-hydroxypropanoate] |
| ≥ 9.00 | CC(C)Oc1ncc(-c2nc(-c3ccc4c(cnn4CCCC(=O)O)c3)no2)cc1C#N [Example 14, 4-[5-(5-{5-Cyano-6-[(1-methylethyl)oxy]-3-pyridinyl}-1,2,4-oxadiazol-3-yl)-1H-indazol-1-yl]butanoic acid] |
